Measured values: patent US20040087571A1, “Methods of using CCR1 antagonists as immunomodulatory agents” (Pfizer Inc, priority 2002, published 2004)
Each block holds one compound with its values, some of them ahead of it.

Compound: CNC(=O)[C@H](CC(C)C)C[C@H](O)[C@H](Cc1ccc(F)cc1)NC(=O)c1cnc2ccccc2n1 [Example 90, Quinoxaline-2-carboxylic acid [1(S)-(4-fluoro-benzyl)-2(S)-hydroxy-6-methyl-4(R)-methylcarbamoyl-heptyl]-amide]
melting point: 153 to 156 °C

Compound: CC1(C)CCC(O)([C@H](C[C@H](O)[C@H](Cc2ccccc2)NC(=O)c2cnc3ccccc3n2)C(N)=O)CC1 [Example 304, Quinoxaline-2-carboxylic acid [1(S)-benzyl-4(S)-carbamoyl-2(S)-hydroxy-4-(1-hydroxy-4,4-dimethyl-cyclohexyl)-butyl]-amide]
melting point: 210 to 211 °C

Compound: CC(C)(O)CC[C@H](C[C@H](O)[C@H](Cc1cccc2ccccc12)NC(=O)c1cnc2ccccc2n1)C(N)=O [Example 324, Quinoxaline-2-carboxylic acid (4(R)-carbamoyl-2(S),7-dihydroxy-7-methyl-1(S)-naphthalen-1-ylmethyl-octyl)-amide]
melting point: 155 to 158 °C

Compound: CC(C)(F)CC[C@H](C[C@H](O)[C@H](Cc1ccccc1)NC(=O)c1cnc2ccccc2n1)C(=O)NCCc1ccccn1 [Example 205, Quinoxaline-2-carboxylic acid [1(S)-benzyl-7-fluoro-2(S)-hydroxy-7-methyl-4(R)-(2-pyridin-2-yl-ethylcarbamoyl)-octyl]-amide]
melting point: 155 to 156 °C

Compound: CC(C)(F)CC[C@H](C[C@H](O)[C@H](Cc1ccccc1)NC(=O)c1cnc2ccccc2n1)C(=O)NCc1ccncc1 [Example 217, Quinoxaline-2-carboxylic acid {1(S)-benzyl-7-fluoro-2(S)-hydroxy-7-methyl-4(R)-[(pyridin-4-ylmethyl)-carbamoyl]-octyl}-amide]
melting point: 100 to 104 °C

Compound: NC(=O)[C@@H](C[C@H](O)[C@H](Cc1ccccc1)NC(=O)c1cnc2ccccc2n1)C1(O)CCCCC1 [Example 260, Quinoxaline-2-carboxylic acid [1(S)-benzyl-4(S)-carbamoyl-2(S)-hydroxy-4-(1-hydroxy-cyclohexyl)-butyl]-amide]
melting point: 210 to 211 °C

Compound: CC(C)C[C@H](C[C@H](O)C(Cc1ccccc1)NC(=O)c1cnc2ccccc2c1)C(=O)NCCO (stereo partly drawn) [Example 33, Quinoline-3-carboxylic acid [1-benzyl-2(S)-hydroxy-4(R)-(2-hydroxy-ethylcarbamoyl)-6-methyl-heptyl]-amide]
melting point: 158 to 162 °C

Compound: CNC(=O)[C@H](CC1CCCCC1)C[C@H](O)[C@H](Cc1ccc(Cl)cc1)NC(=O)c1cnc2ccccc2c1 [Example 71, Quinoline-3-carboxylic acid [1(S)-(4-chloro-benzyl)-5-cyclohexyl-2(S)-hydroxy-4(R)-methylcarbamoyl-pentyl]-amide]
melting point: 198 to 201 °C

Compound: CC1CC(C)CC(O)([C@H](C[C@H](O)[C@H](Cc2ccccc2)NC(=O)c2cnc3ccccc3n2)C(N)=O)C1 (stereo partly drawn) [Example 288, Quinoxaline-2-carboxylic acid [1(S)-benzyl-4(S)-carbamoyl-2(S)-hydroxy-4-(1-hydroxy-3,5-dimethyl-cyclohexyl)-butyl]-amide]
melting point: 234 to 236 °C

Compound: CNC(=O)[C@H](CC1CCCCC1)C[C@H](O)[C@H](CC1CCCCC1)NC(=O)c1cnc2ccccc2c1 [Example 21, Quinoline-3-carboxylic acid (5-cyclohexyl-1(S)-cyclohexylmethyl-2(S)-hydroxy-4(R)-methylcarbamoyl-pentyl)-amide]
melting point: 170.5 to 172.5 °C

Compound: NC(=O)[C@@H](C[C@H](O)[C@H](Cc1ccccc1)NC(=O)c1cnc2ccccc2n1)C1CCCCC1 [Example 168, Quinoxaline-2-carboxylic acid (1(S)-benzyl-4-carbamoyl-4(S)-cyclohexyl-2(S)-hydroxy-butyl)-amide]
melting point: 222 to 223 °C

Compound: CNC(=O)[C@H](CC(C)C)C[C@H](O)[C@H](Cc1ccc(F)cc1)NC(=O)c1cnc2ccccc2c1 [Example 89, Quinoline-3-carboxylic acid [1(S)-(4-fluoro-benzyl)-2(S)-hydroxy-6-methyl-4(R)-methylcarbamoyl-heptyl]-amide]
melting point: 184 to 186 °C

Compound: CC(C)CC[C@H](C[C@H](O)[C@H](Cc1ccccc1F)NC(=O)c1cnc2ccccc2n1)C(N)=O [Example 175, Quinoxaline-2-carboxylic acid [4(R)-carbamoyl-1(S)-(2-fluoro-benzyl)-2(S)-hydroxy-7-methyl-octyl]-amide]
melting point: 213 to 215 °C

Compound: NC(=O)[C@@H](C[C@H](O)[C@H](Cc1ccccc1)NC(=O)c1cnc2ccccc2n1)C1Cc2ccccc2C1 [Example 192, Quinoxaline-2-carboxylic acid (1(S)-benzyl-4(S)-carbamoyl-2(S)-hydroxy-4-indan-2-yl-butyl)-amide]
melting point: 190 to 191 °C

Results, then the compound that gave them:

melting point: 187 to 189 °C
Compound: NC(=O)[C@@H](C[C@H](O)[C@H](Cc1ccccc1)NC(=O)c1cnc2ccccc2n1)C1(O)CCCCC1 [Example 243, Quinoxaline-2-carboxylic acid [1(S)-benzyl-4(S)-carbamoyl-2(S)-hydroxy-4-(1-hydroxy-cyclohexyl)-butyl]-amide]

melting point: 188 to 190 °C
Compound: CC1(C)CC([C@H](C[C@H](O)[C@H](Cc2ccccc2)NC(=O)c2cnc3ccccc3n2)C(N)=O)CC(C)(C)C1 [Example 179, Quinoxaline-2-carboxylic acid [1(S)-benzyl-4(S)-carbamoyl-2(S)-hydroxy-4-(3,3,5,5-tetramethyl-cyclohexyl)-butyl]-amide]

melting point: 178 to 180 °C
Compound: NC(=O)[C@@H](C[C@H](O)[C@H](Cc1ccccc1)NC(=O)c1cnc2ccccc2n1)C1CCCCC1 [Example 169, Quinoxaline-2-carboxylic acid (1(S)-benzyl-4-carbamoyl-4(S)-cyclohexyl-2(S)-hydroxy-butyl)-amide]

melting point: 174 to 176 °C
Compound: NC(=O)[C@H](CC1CCC(F)(F)CC1)C[C@H](O)[C@H](Cc1ccccc1)NC(=O)c1cnc2ccccc2n1 [Example 133, Quinoxaline-2-carboxylic acid [1(S)-benzyl-4(R)-carbamoyl-5-(4,4-difluoro-cyclohexyl)-2(S)-hydroxy-pentyl]-amide]

melting point: 145 to 147 °C
Compound: CNC(=O)[C@H](CCC(C)(C)F)C[C@H](O)[C@H](Cc1ccc(F)cc1)NC(=O)c1cnc2ccccc2n1 [Example 154, Quinoxaline-2-carboxylic acid [7-fluoro-1(S)-(4-fluoro-benzyl)-2(S)-hydroxy-7-methyl-4(R)-methylcarbamoyl-octyl]-amide]

melting point: 233 to 235 °C
Compound: NC(=O)[C@H](Cc1ccccc1)C[C@H](O)[C@H](Cc1ccccc1)NC(=O)c1cnc2c(F)c(F)ccc2c1 [Example 273, 7,8-Difluoro-quinoline-3-carboxylic acid (1(S)-benzyl-4(R)-carbamoyl-2(S)-hydroxy-5-phenyl-pentyl)-amide]

melting point: 215 to 218 °C
Compound: CCC(CC)[C@H](C[C@H](O)[C@H](Cc1ccccc1)NC(=O)c1cnc2ccccc2n1)C(N)=O [Example 203, Quinoxaline-2-carboxylic acid (1(S)-benzyl-4(S)-carbamoyl-5-ethyl-2(S)-hydroxy-heptyl)-amide]

melting point: 188 to 191 °C
Compound: CC(C)(F)CC[C@H](C[C@H](O)[C@H](Cc1ccccc1)NC(=O)c1cnc2ccccc2n1)C(=O)NCc1cccnc1 [Example 199, Quinoxaline-2-carboxylic acid {1(S)-benzyl-7-fluoro-2(S)-hydroxy-7-methyl-4(R)-[(pyridin-3-ylmethyl)-carbamoyl]-octyl}-amide]

melting point: 155.5 to 156.5 °C
Compound: CC(C)(F)CC[C@H](C[C@H](O)[C@H](Cc1ccccc1)NC(=O)c1cnc2ccccc2n1)C(=O)NCc1ccco1 [Example 234, Quinoxaline-2-carboxylic acid {1(S)-benzyl-7-fluoro-4(R)-[(furan-2-ylmethyl)-carbamoyl]-2(S)-hydroxy-7-methyl-octyl}-amide]

melting point: 138 to 140 °C
Compound: CC(C)(F)CC[C@H](C[C@H](O)[C@H](Cc1ccccc1)NC(=O)c1cnc2ccccc2n1)C(=O)NCc1ccccn1 [Example 211, Quinoxaline-2-carboxylic acid {1(S)-benzyl-7-fluoro-2(S)-hydroxy-7-methyl-4(R)-[(pyridin-2-ylmethyl)-carbamoyl]-octyl}-amide]

melting point: 138 to 140 °C
Compound: CC(C)(F)CC[C@H](C[C@H](O)[C@H](Cc1ccccc1)NC(=O)c1cnc2ccccc2n1)C(=O)NCCc1ccc(O)cc1 [Example 212, Quinoxaline-2-carboxylic acid {1(S)-benzyl-7-fluoro-2(S)-hydroxy-4(R)-[2-(4-hydroxy-phenyl)-ethylcarbamoyl]-7-methyl-octyl}-amide]

melting point: 78 to 80 °C
Compound: CC(C)(F)CC[C@H](C[C@H](O)[C@H](Cc1ccccc1)NC(=O)c1cnc2ccccc2n1)C(=O)NCCc1ccncc1 [Example 221, Quinoxaline-2-carboxylic acid [1(S)-benzyl-7-fluoro-2(S)-hydroxy-7-methyl-4(R)-(2-pyridin-4-yl-ethylcarbamoyl)-octyl]-amide]

melting point: 189 to 191 °C
Compound: NC(=O)[C@@H](C[C@H](O)[C@H](Cc1ccccc1)NC(=O)c1cnc2ccccc2n1)C1(O)CCCCCC1 [Example 290, Quinoxaline-2-carboxylic acid [1(S)-benzyl-4(S)-carbamoyl-2(S)-hydroxy-4-(1-hydroxy-cycloheptyl)-butyl]-amide]

melting point: 154 to 155 °C
Compound: CC(C)(F)CC[C@H](C[C@H](O)[C@H](Cc1ccccc1)NC(=O)c1cnc2ccccc2n1)C(=O)NCCc1cccnc1 [Example 220, Quinoxaline-2-carboxylic acid [1(S)-benzyl-7-fluoro-2(S)-hydroxy-7-methyl-4(R)-(2-pyridin-3-yl-ethylcarbamoyl)-octyl]-amide]

melting point: 168 to 170 °C
Compound: CNC(=O)[C@H](CC(C)C)C[C@H](O)[C@H](Cc1ccc(OS(=O)(=O)C(F)(F)F)cc1)NC(=O)c1cnc2ccccc2c1 [Example 50, Trifluoro-methanesulfonic acid 4-{3(S)-hydroxy-7-methyl-5(R)-methylcarbamoyl-2(S)-[(quinoline-3-carbonyl)-amino]-octyl}-phenyl ester]

melting point: 199 to 201 °C
Compound: NC(=O)[C@@H](Cc1ccc(Cl)c(Cl)c1)C[C@H](O)[C@H](Cc1ccccc1)NC(=O)c1cnc2ccccc2n1 [Example 279, Quinoxaline-2-carboxylic acid [1(S)-benzyl-4(S)-carbamoyl-5-(3,4-dichloro-phenyl)-2(S)-hydroxy-pentyl]-amide]
